Measurements from patent publication US11786507B2, “Methods of treating HIV-associated neurological disorders (HAND)” (priority 2020, dated 2023).

Columns and labels:
α7 nAChR = α7 nAChR expression in brain tissue (Western blotting, immunofluorescence); format: in vivo, mouse
Experimental: FIG. 11A-FIG. 11E show the α7 nAChR expression in the brain, cortical neurons, microglia, and astrocytes in response to Tat and PAM. Western blotting was performed in the same samples of FIG. 1D (FIG. 11A & FIG. 11B, mouse brain tissue, n=6/group, three males, and three females) and FIG. 4A (FIG. 11D & FIG. 11E, primary cells, and n=3/group) using an anti-α7 nAChR antibody. Immunofluorescent staining (FIG. 11C, scale bars 20 μm) of the brain tissues was also performed using an anti-α7 nAChR antibody. p<0.05 was considered significant and marked as *; p<0.01 and p<0.001 were both considered highly significant and marked as ** and ***, respectively.
A RIPA buffer (50 mM Tris.HCl, pH 8.0, 280 mM NaCl, 0.5% NP-40, 1% C24H39NaO4, 0.2 mM EDTA, 2 mM EGTA and 10% glycerol) supplemented with protease inhibitors (Millipore-Sigma, catalog #S8830) and phosphatase inhibitors (Millipore-Sigma, catalog #4906845001) was used to lyse the brain tissues and cultured cells with brief sonication on ice. Protein concentrations of the lysates were determined using a Bio-Rad DC protein assay kit (Bio-Rad, catalog #5000111). […]

α7−/−iTat mice = assay: PAM neuroprotection in α7 nAChR knockout iTat mice; settings: mouse, in vivo
Excerpt: Doxycycline (Dox)-inducible and astrocyte-specific HIV-1 Tat-transgenic mice (iTat) were generated as previously described.^38 Wild-type (Wt, C57BL/6) and α7 nAChR knockout mice (α7^−/−, B6.129S7-Chrna^7tm1Ba/J) were purchased from the Jackson Laboratory (Bar Harbor, ME). All the animal procedures were approved by the Institutional Animal Care and Use Committee. Mice were housed with a 12-hour light and 12-hour dark photoperiod and provided water and food ad libitum. α7^−/− iTat mice were generated by cross breeding iTat mice with α7^−/− mice. α7^−/− genotyping was slightly modified with the JumpStart™ Taq DNA Polymerase-based PCR (JumpStart™ Taq DNA Polymerase, Sigma, catalog #D9307). […] Mice of 10-14 weeks old with body weights of 20-35 grams were fed with Dox-containing diet (0.625 g/kg, Envigo, catalog #TD.01306) as stated.
Open Field Test (OPT) and Morris Water Maze (MWZ) were performed sequentially using a computerized video tracking system (Anymaze, Stoelting) to determine the spontaneous locomotor activity and spatial learning and memory, respectively. For OPT, each mouse was allowed to move freely around a clear acrylic chamber (40.5×40.5×30.5 cm) for 10 minutes. Travel distance and maximum speed was determined by the AnyMaze software. […]

SMILES: COc1cc(OC)c(NC(=O)Nc2cc(C)on2)cc1Cl [PAM, 1-(5-chloro-2,4-dimethoxy-phenyl)-3-(5-methyl-isoxazol-3-yl)-urea]
- α7 nAChR expression (α7 nAChR; cortex of iTat mice): increased in cortex
- α7 nAChR expression (α7 nAChR; hippocampus of iTat mice): only decreased in hippocampus by both Tat expression and PAM treatment
- Neuroprotective effects against locomotor, learning and memory deficits (α7−/−iTat mice): abolished
